In PMC6382819, “Design strategy for serine hydroxymethyltransferase probes based on retro-aldol-type reaction” (Nature Communications, 2019) one finds Kd and Km data, which are given here for 3 compounds.

For assay [1], the target named is T1, hSHMT1 (Homo sapiens, UniProt P34896).
T1 construct: gene SHMT1
T1 sequence (P34896 2-483): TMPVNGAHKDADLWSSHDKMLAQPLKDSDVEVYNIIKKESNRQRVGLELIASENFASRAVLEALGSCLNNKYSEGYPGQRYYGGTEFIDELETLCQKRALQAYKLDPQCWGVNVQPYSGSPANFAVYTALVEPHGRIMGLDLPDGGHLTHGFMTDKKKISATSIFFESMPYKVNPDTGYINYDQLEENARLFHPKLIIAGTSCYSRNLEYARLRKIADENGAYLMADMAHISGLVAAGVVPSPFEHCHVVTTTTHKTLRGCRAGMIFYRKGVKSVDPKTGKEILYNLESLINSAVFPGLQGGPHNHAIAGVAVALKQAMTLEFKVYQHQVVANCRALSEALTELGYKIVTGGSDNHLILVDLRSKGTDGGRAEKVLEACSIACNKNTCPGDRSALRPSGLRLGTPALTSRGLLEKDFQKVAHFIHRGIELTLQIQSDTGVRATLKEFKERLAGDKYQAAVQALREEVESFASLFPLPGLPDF
Description: ITC; also DSF thermal shift and HPLC Ser-Gly conversion inhibition (IC50 […]). It is filed as binding.

The target in assay [2] is T1, hSHMT1. Description: enzyme kinetics with recombinant hSHMT1 (retro-aldol turnover, fluorescence). It counts as biochemical.
Assay [3] addresses T1, hSHMT1. Description: enzyme kinetics with recombinant hSHMT1 (UV absorption; […] NMR turnover). It is filed as biochemical.

In the case of `O=C(O)CCC(=O)Nc1ccc(-c2ccnc(-c3ccc(NC(=O)CCC(=O)O)cc3)n2)cc1` [Hit 1], the equilibrium dissociation constant (Kd) in assay [1] amounted to 2000 nM.

Consider `CN(C)c1ccc2cc([C@H](O)[C@H](N)C(=O)O)ccc2c1` [compound 1, fluorescent probe 1], for which the Km in assay [2] worked out at 1810 ± 190 µM.

For the compound `N[C@H](C(=O)O)[C@@H](O)c1ccc(F)cc1` [compound 2, 19F NMR probe 2], the Michaelis constant (Km) in assay [3] came to 2750 ± 270 µM.
